Measurements as given in US20070122392A1, “Propagation of undifferentiated embryonic stem cells in hyaluronic acid hydrogel” (priority 2005, published 2007).

Tests used:
hESCs [1] = experiment: Karyotyping analysis; type: cell-based, human; conditions: hESCs on MEFs (H9 p22; H13 p25) treated with hyaluronidase 2000 U/ml for 24 h
Method: Karyotyping analysis. Cells were prepared and analyzed as previously described and recommended^30. Karyotyping analysis was performed by Dana Faber /Harvard Cancer Research Center, Cytogenetics Laboratory, Cambridge, Mass.

hESCs [2] = experiment: Long-term (24 hours) hyaluronidase treatment of hESC colonies; type: cell-based, human; conditions: growth medium containing hyaluronidase at all concentrations
Method: (§1) Cell-gel constructs were cultivated in hESC grwoth medium containing 100 ng/ml bFGF or MEF conditioned media as previously described^1 Briefly, hESCs growth medium was incubated on inactivated MEF for 24 hours and collected and filtrated. bFGF (4 ng/ml) was added before use. Constructs were incubated up to 40 days. To release encapsulated hESCs, HA constructs were incubated for 24 h in hESC growth medium containing 100, 500, 1000 or 2000 U/ml hyaluronidase (Sigma, St. Louis, Mo.). For re-culture, cells were collected, centrifuged, washed three times with PBS to remove any hydrogel residues, re-suspended in growth medium, and cultured on MEF coated dishes using standard methods^22,23. For EB formation, hESCs were cultivated in non-adherent Petri-dishes.

[3] = Hyaluronidase degradation of HA hydrogel and release of hESCs
Method: as §1

degradation of the HA hydrogel ([3]; 2000 U/ml hyaluronidase in growth medium): complete degradation
release of hESC colonies from the hydrogel ([3]; 2000 U/ml hyaluronidase in growth medium, after 24 hr): completely released
degradation of HA hydrogels ([3]; hyaluronidase concentrations of <1000 U/ml, 24 hr): only partial degradation
Substance: hyaluronidase
karyotype (hESCs [1]): normal 46XX karyotyping
hESC colony morphology and viability (hESCs [2]): preserved their normal morphology with no apparent loss of viability
state of hydrogel and hESCs ([3]; 2000 U/ml hyaluronidase in growth medium, after 18 hr): small particles of hydrogels remained that trapped hESCs
